# Like-named read-outs stand apart in the source and are kept apart here.
# Experiments:
# Delta Opioid Receptor = target: T1, Delta Opioid Receptor (Rattus norvegicus, UniProt P33533); test: Rat brain delta opioid receptor binding assay ([3H]DPDPE or [3H]naltrindole)
# T1 construct: the forebrains were homogenized in Tris buffer in a Teflon®-glass homogenizer; from tissue; host or cells: forebrain of male Wistar rats, particulate membrane preparation
# Mu Opioid Receptor = target: T2, Mu Opioid Receptor (Rattus norvegicus, UniProt P33535); test: Rat brain mu opioid receptor binding assay ([3H]DAMGO)
# T2 construct: the forebrains were homogenized in Tris buffer in a Teflon®-glass homogenizer; from tissue; host or cells: forebrain of male Wistar rats, particulate membrane preparation
# δ-opioid receptor = δ-opioid receptor (Mus musculus, UniProt P32300); test: [35S]GTPγS δ-opioid receptor functional assay (EC50, relative efficacy, % inhibition); assay type: biochemical; set-up: NG108-15 cell membranes were purchased from Applied Cell Sciences (Rockville, Md.); settings: for inhibition at 10 µM: read-out: GTPγS δ-opioid receptor % Inh @10 μM
# [1] = rat forebrain membranes, ~4 nM [3H]DPDPE, read-out: δ-binding (DPDPE ligand) Ki
# [2] = rat forebrain membranes, ~0.8 nM [3H]DAMGO, read-out: μ-binding Ki
# [3] = rat forebrain membranes, 0.25 nM [3H]naltrindole, read-out: δ-binding (Naltrindole ligand) Ki
# T1 sequence (P33533 whole entry): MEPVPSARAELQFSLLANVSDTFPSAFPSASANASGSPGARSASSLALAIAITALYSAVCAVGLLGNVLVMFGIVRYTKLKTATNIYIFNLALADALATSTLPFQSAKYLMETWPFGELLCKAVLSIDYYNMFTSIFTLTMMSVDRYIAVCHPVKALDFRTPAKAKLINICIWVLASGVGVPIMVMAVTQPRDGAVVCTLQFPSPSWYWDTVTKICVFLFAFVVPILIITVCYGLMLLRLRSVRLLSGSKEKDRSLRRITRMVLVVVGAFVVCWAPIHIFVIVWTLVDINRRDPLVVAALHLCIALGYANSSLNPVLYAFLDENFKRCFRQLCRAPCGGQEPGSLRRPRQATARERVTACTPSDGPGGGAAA
# T2 sequence (P33535 whole entry): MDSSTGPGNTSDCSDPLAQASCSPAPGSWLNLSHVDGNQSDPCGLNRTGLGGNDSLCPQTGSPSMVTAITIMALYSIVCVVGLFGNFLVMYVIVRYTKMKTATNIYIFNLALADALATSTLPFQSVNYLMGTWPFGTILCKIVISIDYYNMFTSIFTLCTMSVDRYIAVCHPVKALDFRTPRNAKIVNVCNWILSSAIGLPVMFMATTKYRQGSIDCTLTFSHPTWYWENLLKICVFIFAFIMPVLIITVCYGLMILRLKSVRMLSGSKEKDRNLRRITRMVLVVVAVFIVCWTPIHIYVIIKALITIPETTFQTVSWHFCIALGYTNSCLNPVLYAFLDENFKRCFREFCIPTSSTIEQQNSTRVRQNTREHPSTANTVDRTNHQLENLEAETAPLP
# Sequence of δ-opioid receptor (P32300 whole entry): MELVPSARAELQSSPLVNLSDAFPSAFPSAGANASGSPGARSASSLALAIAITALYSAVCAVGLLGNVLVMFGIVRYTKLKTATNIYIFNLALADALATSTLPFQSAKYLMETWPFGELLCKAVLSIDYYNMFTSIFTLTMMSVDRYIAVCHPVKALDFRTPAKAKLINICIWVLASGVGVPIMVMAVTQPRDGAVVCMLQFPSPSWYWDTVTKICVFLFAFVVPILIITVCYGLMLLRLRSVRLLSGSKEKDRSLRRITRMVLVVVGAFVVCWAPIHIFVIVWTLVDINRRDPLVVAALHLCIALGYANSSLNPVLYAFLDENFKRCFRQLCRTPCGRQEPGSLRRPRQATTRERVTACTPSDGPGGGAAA
compound,measurement,setting,value
COc1ccc(Oc2ccc(NC3CCCNC3)c(Oc3ccc(OC)cc3)c2)cc1 (racemic) [Cpd 54],Ki,Delta Opioid Receptor; [1],0.492 µM
same,Ki,Mu Opioid Receptor,9.7 µM
COc1ccc(Oc2ccc(NCC3CCCNC3)c(Oc3ccc(OC)cc3)c2)cc1 (racemic) [Cpd 61],Ki,Delta Opioid Receptor; [1],0.111 µM
same,Ki,Mu Opioid Receptor; [2],> 10 µM
same,EC50,δ-opioid receptor,4.07 µM
same,inhibition at 10 µM,δ-opioid receptor,16.1%
"CCN(CC)C(=O)CCc1ccc(NC[C@@H]2CCCN2)c(Oc2ccc(OC)cc2)c1 [Cpd 2, N,N-Diethyl-3-[3-(4-methoxyphenoxy)-4-{[(2S)-pyrrolidin-2-ylmethyl]amino}phenyl]propanamide]",Ki,Delta Opioid Receptor; [3],0.0264 µM
same,Ki,Mu Opioid Receptor; [2],> 100 µM
same,GTPγS δ-opioid receptor Rel Efficacy,δ-opioid receptor,0.8333
same,inhibition at 10 µM,δ-opioid receptor,22.8%
same,EC50,δ-opioid receptor; read-out: GTPγS δ-opioid receptor EC50,0.0391 µM
"COc1ccc(CCc2ccc(NC[C@@H]3CCCN3)c(Oc3ccc(OC)cc3)c2)cc1 [Cpd 3, (S)-{2-(4-Methoxy-phenoxy)-4-[2-(4-methoxy-phenyl)-ethyl]-phenyl}-pyrrolidin-2-ylmethyl-amine]",Ki,Delta Opioid Receptor; [3],0.12 µM
same,Ki,Mu Opioid Receptor; [2],> 10 µM
COc1ccc(Oc2cc(CCc3cccc(OC)c3)ccc2NC[C@@H]2CCCN2)cc1 [Cpd 4],Ki,Delta Opioid Receptor; [3],0.21 µM
COc1ccc(Oc2cc(CCc3ccccc3)ccc2NC[C@@H]2CCCN2)cc1 [Cpd 5],Ki,Delta Opioid Receptor; [3],0.239 µM
COc1ccc(Oc2cc(CCc3ccc(F)cc3)ccc2NC[C@@H]2CCCN2)cc1 [Cpd 6],Ki,Delta Opioid Receptor; [3],0.684 µM
COc1ccc(Oc2cc(CCc3cccc(F)c3)ccc2NC[C@@H]2CCCN2)cc1 [Cpd 7],Ki,Delta Opioid Receptor; [3],0.229 µM
"CCN(CC)C(=O)c1cccc(CCc2ccc(NC[C@@H]3CCCN3)c(Oc3ccc(OC)cc3)c2)c1 [Cpd 8, (S)-N,N-Diethyl-3-(2-{3-(4-methoxy-phenoxy)-4-[(pyrrolidin-2-ylmethyl)-amino]-phenyl}-ethyl)-benzamide]",Ki,Delta Opioid Receptor; [3],0.127 µM
same,Ki,Mu Opioid Receptor,9 µM
"CCN(CC)C(=O)c1ccc(NC[C@@H]2CCCN2)c(Oc2ccccc2)c1 [Cpd 9, (S)-N,N-Diethyl-3-phenoxy-4-[(pyrrolidin-2-ylmethyl)-amino]-benzamide]",Ki,Delta Opioid Receptor; [3],1.02 µM
same,Ki,Mu Opioid Receptor; [2],> 10 µM
CCN(CC)C(=O)c1ccc(NC[C@@H]2CCCN2)c(Oc2ccccc2OC)c1 [Cpd 11],Ki,Delta Opioid Receptor; [1],0.105 µM
same,EC50,δ-opioid receptor,0.319 µM
"N#Cc1ccc(Oc2cc(-c3ccccc3)ccc2NC[C@@H]2CCCN2)cc1 [Cpd 12, (S)-4-{4-[(Pyrrolidin-2-ylmethyl)-amino]-biphenyl-3-yloxy}-benzonitrile]",Ki,Delta Opioid Receptor; [3],0.996 µM
same,Ki,Mu Opioid Receptor; [2],> 10 µM
N#Cc1cccc(Oc2cc(-c3ccccc3)ccc2NC[C@@H]2CCCN2)c1 [Cpd 13],Ki,Delta Opioid Receptor; [3],0.402 µM
c1ccc(Oc2cc(-c3ccccc3)ccc2NC[C@@H]2CCCN2)cc1 [Cpd 14],Ki,Delta Opioid Receptor; [3],0.113 µM
COc1cccc(Oc2cc(-c3ccccc3)ccc2NC[C@@H]2CCCN2)c1 [Cpd 15],Ki,Delta Opioid Receptor; [3],0.289 µM
Fc1ccc(Oc2cc(-c3ccccc3)ccc2NC[C@@H]2CCCN2)cc1 [Cpd 16],Ki,Delta Opioid Receptor; [3],0.419 µM
FC(F)(F)Oc1ccc(Oc2cc(-c3ccccc3)ccc2NC[C@@H]2CCCN2)cc1 [Cpd 17],Ki,Delta Opioid Receptor; [3],1.47 µM
Clc1cccc(Cl)c1Oc1cc(-c2ccccc2)ccc1NC[C@@H]1CCCN1 [Cpd 18],Ki,Delta Opioid Receptor; [3],0.107 µM
same,EC50,δ-opioid receptor,1.04 µM
same,GTPγS δ-opioid receptor Rel Efficacy,δ-opioid receptor,0.763
same,inhibition at 10 µM,δ-opioid receptor,23.4%
CNCCNc1ccc(-c2ccccc2)cc1Oc1ccc(OC)cc1 [Cpd 19],Ki,Delta Opioid Receptor; [3],0.192 µM
same,Ki,Mu Opioid Receptor; [2],> 10 µM
COC(=O)c1ccc(Oc2cc(-c3ccccc3)ccc2NC[C@@H]2CCCN2)cc1 [Cpd 20],Ki,Delta Opioid Receptor; [3],0.779 µM
COC(=O)c1cccc(Oc2cc(-c3ccccc3)ccc2NC[C@@H]2CCCN2)c1 [Cpd 21],Ki,Delta Opioid Receptor; [3],0.887 µM
Clc1ccc(Oc2cc(-c3ccccc3)ccc2NC[C@@H]2CCCN2)c(Cl)c1 [Cpd 22],Ki,Delta Opioid Receptor; [3],0.698 µM
COc1ccc(Oc2cc(-c3ccccc3)ccc2NC2CCNCC2)cc1 [Cpd 23],Ki,Delta Opioid Receptor; [3],0.461 µM
same,Ki,Mu Opioid Receptor; [2],> 10 µM
COc1ccc(Oc2cc(-c3cncc(OC)c3)ccc2NC[C@@H]2C[C@@H](F)CN2)cc1 [Cpd 27],Ki,Delta Opioid Receptor; [3],1 µM
COc1ccc(Oc2cc(-c3cncc(C)c3)ccc2NC[C@@H]2C[C@@H](F)CN2)cc1 [Cpd 28],Ki,Delta Opioid Receptor,0.00681 µM
same,Ki,Mu Opioid Receptor,4.67 µM
same,EC50,δ-opioid receptor,0.165 µM
same,GTPγS δ-opioid receptor Rel Efficacy,δ-opioid receptor,0.8756
"NC(=O)c1ccc(Oc2cc(-c3ccccc3)ccc2NC[C@@H]2CCCN2)cc1 [Cpd 29, (S)-4-{4-[(Pyrrolidin-2-ylmethyl)-amino]-biphenyl-3-yloxy}-benzamide]",Ki,Delta Opioid Receptor; [3],0.147 µM
same,Ki,Mu Opioid Receptor; [2],> 10 µM
NC(=O)c1cccc(Oc2cc(-c3ccccc3)ccc2NC[C@@H]2CCCN2)c1 [Cpd 30],Ki,Delta Opioid Receptor; [3],0.127 µM
same,Ki,Mu Opioid Receptor,5.8 µM
same,EC50,δ-opioid receptor,1.02 µM
same,GTPγS δ-opioid receptor Rel Efficacy,δ-opioid receptor,0.2668
same,inhibition at 10 µM,δ-opioid receptor,36.5%
"O=C(O)c1ccc(Oc2cc(-c3ccccc3)ccc2NC[C@@H]2CCCN2)cc1 [Cpd 31, (S)-4-{4-[(Pyrrolidin-2-ylmethyl)-amino]-biphenyl-3-yloxy}-benzoic acid]",Ki,Delta Opioid Receptor; [3],7.69 µM
same,Ki,Mu Opioid Receptor; [2],> 10 µM
O=C(O)c1cccc(Oc2cc(-c3ccccc3)ccc2NC[C@@H]2CCCN2)c1 [Cpd 32],Ki,Delta Opioid Receptor; [3],2.67 µM
"CCN(CC)C(=O)c1ccc(Oc2cc(-c3ccccc3)ccc2NC[C@@H]2CCCN2)cc1 [Cpd 33, (S)-N,N-Diethyl-4-{4-[(pyrrolidin-2-ylmethyl)-amino]-biphenyl-3-yloxy}-benzamide]",Ki,Delta Opioid Receptor; [3],0.284 µM
same,Ki,Mu Opioid Receptor,9.3 µM
CCN(CC)C(=O)c1cccc(Oc2cc(-c3ccccc3)ccc2NC[C@@H]2CCCN2)c1 [Cpd 34],Ki,Delta Opioid Receptor; [3],0.31 µM
"COc1ccc(Oc2cc(-c3ccccc3)ccc2NC[C@@H]2CCCN2)cc1 [Cpd 35, (S)-[3-(4-Methoxy-phenoxy)-biphenyl-4-yl]-pyrrolidin-2-ylmethyl-amine]",Ki,Delta Opioid Receptor,0.0289 µM
same,Ki,Mu Opioid Receptor; read-out: μ-binding Ki,> 10 µM
same,inhibition at 10 µM,δ-opioid receptor,1%
"COc1ccc(Oc2cc(-c3ccc4ccccc4c3)ccc2NC[C@@H]2CCCN2)cc1 [Cpd 36, (S)-[2-(4-Methoxy-phenoxy)-4-naphthalen-2-yl-phenyl]-pyrrolidin-2-ylmethyl-amine]",Ki,Delta Opioid Receptor; [3],0.29 µM
same,Ki,Mu Opioid Receptor; [2],> 10 µM
COc1ccc(Oc2cc(-c3cccc4ccccc34)ccc2NC[C@@H]2CCCN2)cc1 [Cpd 37],Ki,Delta Opioid Receptor; [3],0.301 µM
COc1ccc(Oc2cc(-c3ccoc3)ccc2NC[C@@H]2CCCN2)cc1 [Cpd 40],Ki,Delta Opioid Receptor; [3],0.205 µM
COc1ccc(Oc2cc(-c3ccsc3)ccc2NC[C@@H]2CCCN2)cc1 [Cpd 41],Ki,Delta Opioid Receptor; [3],0.29 µM
"Oc1ccc(Oc2cc(-c3cccnc3)ccc2NC[C@@H]2CCCN2)cc1 [Cpd 45, (S)-4-{5-Pyridin-3-yl-2-[(pyrrolidin-2-ylmethyl)-amino]-phenoxy}-phenol]",Ki,Delta Opioid Receptor,0.00542 µM
same,Ki,Mu Opioid Receptor,4.46 µM
same,EC50,δ-opioid receptor,0.0408 µM
same,GTPγS δ-opioid receptor Rel Efficacy,δ-opioid receptor,0.627
same,inhibition at 10 µM,δ-opioid receptor,35.6%
"COc1ccc(Oc2cc(-c3ccccc3)ccc2N2CCNCC2)cc1 [Cpd 46, 1-[3-(4-Methoxy-phenoxy)biphenyl-4-yl]piperazine]",Ki,Delta Opioid Receptor,0.0797 µM
same,Ki,Mu Opioid Receptor; read-out: μ-binding Ki,> 10 µM
"COc1ccc(Oc2cc(-c3ccccc3)ccc2N2CCN(C)CC2)cc1 [Cpd 47, 1-[3-(4-Methoxy-phenoxy)biphenyl-4-yl]-4-methyl-piperazine]",Ki,Delta Opioid Receptor; [3],2.22 µM
same,Ki,Mu Opioid Receptor; [2],> 10 µM
"COc1ccc(Oc2cc(-c3noc(=O)[nH]3)ccc2NC[C@@H]2CCCN2)cc1 [Cpd 48, (S)-3-{3-(4-Methoxy-phenoxy)-4-[(pyrrolidin-2-ylmethyl)-amino]-phenyl}-4H-[1,2,4]oxadiazol-5-one]",Ki,Delta Opioid Receptor; [1],0.492 µM
same,Ki,Mu Opioid Receptor; [2],9.7 µM
COc1ccc(Oc2ccc(NC[C@@H](N)CO)c(Oc3ccc(OC)cc3)c2)cc1 [Cpd 55],Ki,Delta Opioid Receptor; [1],1.37 µM
COc1ccc(Oc2ccc(NC3CCNCC3)c(Oc3ccc(OC)cc3)c2)cc1 [Cpd 56],Ki,Delta Opioid Receptor; [1],1.73 µM
same,Ki,Mu Opioid Receptor; [2],> 10 µM
COc1ccc(Oc2ccc(NC3CC4CCC(C3)N4)c(Oc3ccc(OC)cc3)c2)cc1 (stereo not shown) [Cpd 57],Ki,Delta Opioid Receptor; [1],1.43 µM
same,Ki,Mu Opioid Receptor; [2],> 10 µM
COc1ccc(Oc2ccc(NCC3CNC3)c(Oc3ccc(OC)cc3)c2)cc1 [Cpd 58],Ki,Delta Opioid Receptor; [1],0.703 µM
same,Ki,Mu Opioid Receptor; [2],> 10 µM
COc1ccc(Oc2ccc(N(CC3CNC3)CC3CNC3)c(Oc3ccc(OC)cc3)c2)cc1 [Cpd 59],Ki,Delta Opioid Receptor; [1],2.28 µM
same,Ki,Mu Opioid Receptor; [2],> 10 µM
COc1ccc(Oc2ccc(NC3CN4CCC3CC4)c(Oc3ccc(OC)cc3)c2)cc1 (stereo not shown) [Cpd 60],Ki,Delta Opioid Receptor; [1],0.158 µM
same,Ki,Mu Opioid Receptor; [2],> 10 µM
"CNCCN(CCNC)c1ccc(Oc2ccc(OC)cc2)cc1Oc1ccc(OC)cc1 [Cpd 64, N-[2,4-Bis-(4-methoxy-phenoxy)-phenyl]-N′-methyl-N-(2-methylamino-ethyl)-ethane-1,2-diamine]",Ki,Delta Opioid Receptor; [1],1.54 µM
same,Ki,Mu Opioid Receptor; [2],> 10 µM
